One test deals with FKBP12 (Homo sapiens, UniProt P62942). The test is described as follows: SPR assay to determine binding affinity to FKBP12 (direct binding). The note with it: immobilized biotinylated avi-FKBP12, single-cycle kinetics. How it is done: SPR Assay to Determine Binding Affinity to FKBP12.
Biotinylated avi-FKBP12 was immobilized on a streptavidin chip (Cytiva Series S SA) using a Biacore 8K or 8k+ (Cytiva). […] Test compounds described in Table 11 were diluted in DMSO to 100× working concentration. Each test compound was 100-fold diluted in 50 mM HEPES pH 7.5, 150 mM NaCl, 2 mM MgCl2, 1 mM DTT, 0.05% Tween-20 and a serial dilution prepared (9 concentrations, 3-fold dilutions, 0.08-500 nM). […] The compound dilutions were then injected at 100 uL/min for 120 seconds contact time in sequence with increasing concentrations. Dissociation was monitored for 3600 seconds. 50 mM HEPES pH 7.5, 150 mM NaCl, 2 mM MgCl2, 1 mM DTT, 0.05% Tween-20, 1% DMSO was used as running buffer. The single-cycle kinetics data were fit to a 1:1 binding model to measure the association rate ka (1/Ms), the dissociation rate kd (1/s) and the affinity Kd (M).

The target of test [1] is FKBP12 ternary complex with FRB (Homo sapiens, UniProt P42345+P62942). The test is described as follows: SPR assay to characterize ternary complex formation with FKBP12 (FRB injected over compound-saturated FKBP12). It is filed as binding. The note with it: FRB dilutions with 100 nM test compound over immobilized FKBP12. As for the experimental part: Biotinylated avi-FKBP12 was immobilized on a streptavidin chip (Cytiva Series S SA) using a Biacore 8K or 8k+ (Cytiva). To achieve an immobilization level of 100 RU, 0.3 μg/ml biotinylated avi-FKBP12 were injected for 80 sec at a flow rate of 10 μl/min. Serial dilution of FRB was prepared (12 concentrations, 3-fold dilutions, 0.00011-20 μM) and supplemented with 100 nM of a test compound. A-B-A injection mode was used to ensure saturation immobilized FKBP12 with respective test compound. 100 nM solution of the respective test compound was injected before FRB injection for 120 sec and during dissociation for 420 sec. The FRB dilutions were then injected 120 seconds contact time with increasing concentrations. Rapamycin was used as reference sample. 50 mM HEPES pH 7.5, 150 mM NaCl, 2 mM MgCl2, 1 mM DTT, 0.05% Tween-20, 1% DMSO was used as running buffer at a flow rate of 30 μl/min. The multi-cycle kinetics data were fit to a 1:1 binding model to measure the association rate ka (1/Ms), the dissociation rate kd (1/s) and the affinity Kd (M). In case of fast association and dissociation, steady state affinity analysis following the law of mass action was used to determine the affinity Kd (M).

For another test, the target named is T1, mTORC1 (Homo sapiens, UniProt P42345+P62942).
T1 construct: endogenous in cells; host or cells: PC-3 cells
The test is described as follows: mTORC1 inhibition in PC-3 cells, AlphaLISA of p70S6K pT389 levels. The note with it: mTORC1 as measured by inhibition of p70S6K pT389 levels, read-out: mTROC1 IC50. Type of test: cell-based. As for the experimental part: mTORC1 inhibition was determined via analysis of phosphorylation levels of Phospho-p70 S6 kinase (p70S6K pT389) and Phospho-S6 Ribosomal Protein (pRPS6 pS240/pS244) with the corresponding AlphaLISA kits (PerkinElmer Alpha SF Ultra™ Multiplex phospho (Thr389)/total p70 S6K Assay Kit (Eu/Tb) and AlphaLISA SF Ultra™ p-Ribosomal Protein S6 (Ser240/244) Assay Kit).
%−activity=100*((Sample−Low control)/(High control−Low control))
A general note: Alpha assays give light when donor and acceptor beads are brought close together.

For orientation: Kd means the concentration at which binding is half-saturated. By IC50 is commonly meant the concentration needed to halve the response being measured.

SMILES strings stand for the structures. Some results are limits rather than exact numbers.

Chain of FKBP12 (P62942 whole entry, species assumed): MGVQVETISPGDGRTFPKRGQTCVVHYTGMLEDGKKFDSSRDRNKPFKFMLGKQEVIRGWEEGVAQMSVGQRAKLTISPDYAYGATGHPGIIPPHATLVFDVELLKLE

Turning to `CO[C@@H]1C[C@H](C[C@@H](C)[C@@H]2CC(=O)[C@H](C)/C=C(\C)[C@@H](O)[C@@H](OC)C(=O)[C@H](C)C[C@H](C)/C=C/C=C/C=C(\C)[C@H](OC3CC3)C[C@@H]3CC[C@@H](C)[C@@](O)(O3)C(=O)C(=O)N3CCCC[C@H]3C(=O)O2)CC[C@H]1O` [Compound 519, (1R,9S,12S,15R,16E,18R,19R,21R,23S,24E,26E,28E,30R,32S,35R)-30-(cyclopropoxy)-1,18-dihydroxy-12-[(1R)-2-[(1S,3R,4R)-4-hydroxy-3-methoxy-cyclohexyl]-1-methyl-ethyl]-19-methoxy-15,17,21,23,29,35-hexamethyl-11,36-dioxa-4-azatricyclo[30.3.1.04,9]hexatriaconta-16,24,26,28-tetraene-2,3,10,14,20-pentone], the values for the Kd (at FKBP12; in test [1]) were under 0.3 nM and under 500 nM, respectively. The IC50 on mTORC1 is under 0.8 nM.

With `CO[C@@H]1C[C@H](C[C@@H](C)[C@@H]2CC(=O)[C@H](C)/C=C(\C)[C@@H](O)[C@@H](OC)C(=O)[C@H](C)C[C@H](C)/C=C/C=C/C=C(\C)[C@H](OCC3COC3)C[C@@H]3CC[C@@H](C)[C@@](O)(O3)C(=O)C(=O)N3CCCC[C@H]3C(=O)O2)CC[C@H]1OCCO` [Compound 75, (1R,9S,12S,15R,16E,18R,19R,21R,23S,24E,26E,28E,30R,32S,35R)-1,18-dihydroxy-12-[(1R)-2-[(1S,3R,4R)-4-(2-hydroxyethoxy)-3-methoxy-cyclohexyl]-1-methyl-ethyl]-19-methoxy-15,17,21,23,29,35-hexamethyl-30-(oxetan-3-ylmethoxy)-11,36-dioxa-4-azatricyclo[30.3.1.04,9]hexatriaconta-16,24,26,28-tetraene-2,3,10,14,20-pentone], the Kd on FKBP12 was 0.3 to 1 nM; in test [1], over 1100 nM. Besides, at mTORC1, the IC50 was over 1.5 nM.

On to `COCCO[C@H]1C[C@@H]2CC[C@@H](C)[C@@](O)(O2)C(=O)C(=O)N2CCCC[C@H]2C(=O)O[C@H]([C@H](C)C[C@@H]2CC[C@@H](OCCCO)[C@H](OC)C2)CC(=O)[C@H](C)/C=C(\C)[C@@H](O)[C@@H](OC)C(=O)[C@H](C)C[C@H](C)/C=C/C=C/C=C/1C` [Compound 427, (1R,9S,12S,15R,16E,18R,19R,21R,23S,24E,26E,28E,30S,32S,35R)-1,18-dihydroxy-12-[(1R)-2-[(1S,3R,4R)-4-(3-hydroxypropoxy)-3-methoxy-cyclohexyl]-1-methyl-ethyl]-19-methoxy-30-(2-methoxyethoxy)-15,17,21,23,29,35-hexamethyl-11,36-dioxa-4-azatricyclo[30.3.1.04,9]hexatriaconta-16,24,26,28-tetraene-2,3,10,14,20-pentone], for which the Kd at FKBP12 was 0.3 to 1 nM; in test [1], under 500 nM. Further, at mTORC1, the IC50 was under 0.8 nM.

For `CO[C@@H]1C[C@H](C[C@@H](C)[C@@H]2CC(=O)[C@H](C)/C=C(\C)[C@@H](O)[C@@H](OC)C(=O)[C@H](C)C[C@H](C)/C=C/C=C/C=C(\C)[C@H](OCCCCO)C[C@@H]3CC[C@@H](C)[C@@](O)(O3)C(=O)C(=O)N3CCCC[C@H]3C(=O)O2)CC[C@H]1OCCCN1CCOCC1` [Compound 27, (1R,9S,12S,15R,16E,18R,19R,21R,23S,24E,26E,28E,30R,32S,35R)-1,18-dihydroxy-30-(4-hydroxybutoxy)-19-methoxy-12-[(1R)-2-[(1S,3R,4R)-3-methoxy-4-(3-morpholinopropoxy)cyclohexyl]-1-methyl-ethyl]-15,17,21,23,29,35-hexamethyl-11,36-dioxa-4-azatricyclo[30.3.1.04,9]hexatriaconta-16,24,26,28-tetraene-2,3,10,14,20-pentone], the Kd at FKBP12 is under 0.3 nM; in test [1] it was 500 to 1100 nM. For the same compound, on mTORC1, the IC50 fell in the range of 0.8 to 1.5 nM.

On to `COCCO[C@@H]1C[C@@H]2CC[C@@H](C)[C@@](O)(O2)C(=O)C(=O)N2CCCC[C@H]2C(=O)O[C@H]([C@H](C)C[C@@H]2CC[C@@H](O)[C@H](OC)C2)CC(=O)[C@H](C)/C=C(\C)[C@@H](O)[C@@H](OC)C(=O)[C@H](C)C[C@H](C)/C=C/C=C/C=C/1C` [Compound 130, (1R,9S,12S,15R,16E,18R,19R,21R,23S,24E,26E,28E,30R,32S,35R)-1,18-dihydroxy-12-[(1R)-2-[(1S,3R,4R)-4-hydroxy-3-methoxy-cyclohexyl]-1-methyl-ethyl]-19-methoxy-30-(2-methoxyethoxy)-15,17,21,23,29,35-hexamethyl-11,36-dioxa-4-azatricyclo[30.3.1.04,9]hexatriaconta-16,24,26,28-tetraene-2,3,10,14,20-pentone], for which the Kd at FKBP12 was 0.3 to 1 nM; in test [1], 500 to 1100 nM. Also, at mTORC1, the IC50 lay in the range of 0.8 to 1.5 nM.

Consider `CO[C@@H]1C[C@H](C[C@@H](C)[C@@H]2CC(=O)[C@H](C)/C=C(\C)[C@@H](O)[C@@H](OC)C(=O)[C@H](C)C[C@H](C)/C=C/C=C/C=C(\C)[C@H](OCC3COC3)C[C@@H]3CC[C@@H](C)[C@@](O)(O3)C(=O)C(=O)N3CCCC[C@H]3C(=O)O2)CC[C@H]1O` [Compound 122, (1R,9S,12S,15R,16E,18R,19R,21R,23S,24E,26E,28E,30R,32S,35R)-1,18-dihydroxy-12-[(2R)-1-[(1S,3R,4R)-4-hydroxy-3-methoxycyclohexyl]propan-2-yl]-19-methoxy-15,17,21,23,29,35-hexamethyl-30-[(oxetan-3-yl)methoxy]-11,36-dioxa-4-azatricyclo[30.3.1.04,9]hexatriaconta-16,24,26,28-tetraene-2,3,10,14,20-pentone], for which the equilibrium dissociation constant (Kd) at FKBP12 was 0.3 to 1 nM; in test [1], over 1100 nM. Further, at mTORC1, the concentration for half-maximal inhibition (IC50) lay within 0.8 to 1.5 nM.

With `COCCO[C@H]1C[C@@H]2CC[C@@H](C)[C@@](O)(O2)C(=O)C(=O)N2CCCC[C@H]2C(=O)O[C@H]([C@H](C)C[C@@H]2CC[C@@H](OCCO)[C@H](OC)C2)CC(=O)[C@H](C)/C=C(\C)[C@@H](O)[C@@H](OC)C(=O)[C@H](C)C[C@H](C)/C=C/C=C/C=C/1C` [Compound 439, (1R,9S,12S,15R,16E,18R,19R,21R,23S,24E,26E,28E,30S,32S,35R)-1,18-dihydroxy-12-[(1R)-2-[(1S,3R,4R)-4-(2-hydroxyethoxy)-3-methoxy-cyclohexyl]-1-methyl-ethyl]-19-methoxy-30-(2-methoxyethoxy)-15,17,21,23,29,35-hexamethyl-11,36-dioxa-4-azatricyclo[30.3.1.0^4,9]hexatriaconta-16,24,26,28-tetraene-2,3,10,14,20-pentone], the dissociation constant (Kd) at FKBP12 is 0.3 to 1 nM; in test [1] it was under 500 nM. Further, the IC50 at mTORC1 was under 0.8 nM.

For `COCCO[C@@H]1C[C@@H]2CC[C@@H](C)[C@@](O)(O2)C(=O)C(=O)N2CCCC[C@H]2C(=O)O[C@H]([C@H](C)C[C@@H]2CC[C@@H](OCCCO)[C@H](OC)C2)CC(=O)[C@H](C)/C=C(\C)[C@@H](O)[C@@H](OC)C(=O)[C@H](C)C[C@H](C)/C=C/C=C/C=C/1C` [Compound 28, (1R,9S,12S,15R,16E,18R,19R,21R,23S,24E,26E,28E,30R,32S,35R)-1,18-dihydroxy-12-[(1R)-2-[(1S,3R,4R)-4-(3-hydroxypropoxy)-3-methoxy-cyclohexyl]-1-methyl-ethyl]-19-methoxy-30-(2-methoxyethoxy)-15,17,21,23,29,35-hexamethyl-11,36-dioxa-4-azatricyclo[30.3.1.04,9]hexatriaconta-16,24,26,28-tetraene-2,3,10,14,20-pentone], the Kd at FKBP12 was over 1 nM; in test [1] it was 500 to 1100 nM. At mTORC1, the IC50 is over 1.5 nM.

The record behind these values is patent US20230331737A1, “MTORC1 MODULATORS AND USES THEREOF” (Aeovian Pharmaceuticals, Inc., priority 2020, published 2023).
